Measurements taken from patent publication US8771755B2, “Preparation and compositions of highly bioavailable zerovalent sulfur and uses thereof” (Nuevas Alternativas Naturales, S.A.P.I. de C.V., priority 2011, dated 2014).
Like-named read-outs stand apart in the source and are kept apart here. Values belong to the compound of their own block, whether it stands above or below them.

Assays:
[1] = Percentage bioactive sulfur contained in hydrogen sulfide prodrugs; assay type: physicochemical
[2] = test system: superoxide formation and expression of p47phox (a subunit of NOX); details: Shukla et al., BJU Int. 2009; cited from earlier work
[3] = test system: pregnant rat uterine contractility; details: in vitro, Sidhu et al. 2001; cited from earlier work
angiogenesis = details: in the drinking water; via increasing VEGF expression; Givvimani et al. 2011; cited from earlier work
[4] = comparison substance; cited from earlier work
[5] = test system: patients with idiopathic oligoasthenozoospermia; assay: Prospective, randomized, double blind study in idiopathic oligoasthenozoospermia, semen analysis; assay type: in vivo, human; details: first sample (baseline, before treatment)
Description: A prospective, randomized, double blind study evaluated and approved by the Ethics Committee of the Universidad Autónoma de Nuevo León University Hospital (Monterrey, Mexico) with registration number BR09-001 was conducted. The study included patients who attended the Reproductive Biology Clinic of the University Hospital from July 2009 to September 2010 who desired to be pregnant and met the inclusion criteria. Patients between 20 and 45 years of age with a diagnosis of idiopathic oligoasthenozoospermia wishing to participate in the study after signing informed consent were included. The diagnosis of oligoasthenozoospermia was reached by performing two semen analyses on different dates with an interval of three weeks in between. To make the diagnosis, the results of the semen analyses needed to report less than 25% type A sperm motility or less than 50% type A+B sperm motility as detailed in the World Health Organization Laboratory Manual for the Examination of Human Semen and Semen-Cervical Mucus Interaction, 4th ed. New York: Cambridge University Press, 1999. Type A Motility comprised rapid progression; type B motility comprised medium progression; type C mobility comprised slow or clumsy progression; and type D mobility comprised immotile. Oligozoospermia was defined as a concentration of less than 20 million sperm per milliliter, according to the criteria of the World Health Organization. Oligoasthenozoospermia was defined as the presence of oligozoospermia and asthenozoospermia in the same patient. In each semen analysis, morphology was manually assessed using Kruger strict criteria.
Infertile patients with normal findings on semen analysis, patients who were chronic smokers or those who had been taking antioxidants in the last 6 months prior to study entry were excluded. Patients with chronic degenerative diseases such as diabetes or high blood pressure or with hormonal abnormalities were also excluded.
A complete medical history and physical examination was obtained for all patients. All study participants underwent a second semen analysis to confirm the diagnosis after a sexual abstinence of 3 to 5 days. This semen analysis was considered baseline (sample 1). On a second visit this new semen analysis was reviewed to confirm oligoasthenozoospermia and one of the 3 substances to be taken was randomly prescribed for 75 days. The substances given were 1.5 g of hydrogen sulfide prodrug as an antioxidant, 50 mg of resveratrol as an antioxidant, and 1.5 g of microcrystalline cellulose as a placebo.
Randomization of the substance given to each patient was performed by placing in a drawer at random all the containers having exactly the same color, size, and shape with the three separate substances (hydrogen sulfide prodrug, resveratrol, and placebo) without any kind of reference as to the content. […] The attending physician and the patient were unaware of the contents of the container. […] Each patient was asked to take a container at random and the container number was recorded in the patient's medical record. At the end of the study, before statistical analysis, we obtained the relationship between the numbers on the labels and the contents, grouping patients according to the substance. Each patient was given a treatment adherence form (a patient log) in order to count the days of medication and record adverse events, if these occurred, including the type and frequency.
The patients were scheduled one month after starting treatment (third visit) in order to document adverse effects and adherence to treatment.
In the next scheduled consultation (fourth visit), carried out 75 days after starting treatment; adherence was verified and adverse effects were reported. For this visit, the patients presented with 3 to 5 days of sexual abstinence for post-treatment semen analysis (sample 2). […]

[6] = sulfur capable of being converted into hydrogen sulfide in vivo, prior art prodrugs

% Bioactive sulfur (w/w) [1, 6]: 3.5 % (w/w)
Structure (SMILES): CCCc1nn(C)c2c(=O)[nH]c(-c3cc(S(=O)(=O)N4CCN(CC(=O)Oc5ccc(-c6cc(=S)ss6)cc5)CC4)ccc3OCC)nc12 [ACS 6]
inhibition of expression of p47phox [2]: more than sildenafil citrate | inhibition of superoxide formation [2]: more than sildenafil citrate

Structure (SMILES): O=C(Cc1ccccc1Nc1c(Cl)cccc1Cl)Oc1ccc(-c2cc(=S)ss2)cc1 [ACS 15]
% Bioactive sulfur (w/w) [1]: 6.3 % (w/w)

Structure (SMILES): O=C(CCC/C=C\C[C@@H]1[C@@H](CC[C@@H](O)CCc2ccccc2)[C@H](O)C[C@@H]1O)Oc1ccc(-c2cc(=S)ss2)cc1 [ACS 67]
% Bioactive sulfur (w/w) [1]: 5.3 % (w/w)

Structure (SMILES): COc1ccc2c(c1)c(CC(=O)Oc1ccc(-c3cc(=S)ss3)cc1)c(C)n2C(=O)c1ccc(Cl)cc1 [ATB 343]
% Bioactive sulfur (w/w) [1]: 5.6 % (w/w)

% Bioactive sulfur (w/w) [1, 6]: 8.8 % (w/w)
Structure (SMILES): COc1ccc2cc(C(C)C(=O)Oc3ccc(C(N)=S)cc3)ccc2c1 (stereo not shown) [ATB 346]

Structure (SMILES): C1COCCN1.COc1ccc(P(=S)(S)N2CCOCC2)cc1 (stereo not shown) [GYY 4137]
% Bioactive sulfur (w/w) [1]: 8.5 % (w/w)

Structure (SMILES): [Na+].[Na+].[S-2] [Na2S (anhydrous), Na2S]
% Bioactive sulfur (w/w) [1]: 41 % (w/w)

Structure (SMILES): [Na+].[SH-] [NaHS (anhydrous), sodium hydrogen sulfide]
uterine spontaneous contractility [3]: significant dose-dependent decreases | angiogenesis (angiogenesis): augmented angiogenesis

Structure (SMILES): [S] [Pure alpha- or beta-elemental sulfur, elemental sulfur]
solubility in carbon disulfide [4]: completely soluble

Structure (SMILES): Oc1ccc(C=Cc2cc(O)cc(O)c2)cc1 [Resveratrol, resveratrol]
MFR (Mobile Forms Recovery, post sperm capacitation) [5]: 0.40 × 10^6 | mean sperm concentration [5]: 10.9 million per milliliter | mobile forms recovered (MFR) post-sperm capacitation [5]: 0.40 million | Motility A + B (%) ([5]; group mean): 14.43% | Normal morphology (%) ([5]; group mean): 32.06% | Sperm concentration ([5]; group mean): 10.9 × 10^6

% Bioactive sulfur (w/w) [1, 6]: 18 % (w/w)
Structure (SMILES): C[S+]([O-])CCCCN=C=S (stereo not shown) [Sulforaphane]
